Experimental data taken from patent US8158152B2, “Lyophilization process and products obtained thereby” (SciDose LLC, priority 2005, dated 2012).

How the values were obtained:
[1] = cited from earlier work
[2] = Solubility as stated in words; format: physicochemical; conditions: in the presence of small quantities of HCl

SMILES | solubility in ethanol ([1]; ethanol) | solubility in water ([1]; water) | solubility in non-aqueous solvents (e.g. THF) [2] | solubility in solvents, as generally considered ([1]; general knowledge)
O=P1(N(CCCl)CCCl)NCCCO1 (stereo not shown) [cyclophosphamide] | highly soluble | sparingly soluble | – | –
CCC(C)n1ncn(-c2ccc(N3CCN(c4ccc(OCC5COC(Cn6cncn6)(c6ccc(Cl)cc6Cl)O5)cc4)CC3)cc2)c1=O (stereo not shown) [itraconazole] | – | – | high concentrations of itraconazole can be dissolved | soluble in methylene chloride only
